What is called inhibition is the change of the read-out against control, counted positive when it falls.

Data on 40 compounds can be found in US20030225152A1, “3-(Arylamino)methylene-1, 3-dihydro-2h-indol-2-ones as kinase inhibitors” (priority 2001, published 2003).

The experiment deals with VEGF induced increases in intracellular calcium levels in HUVEC (human umbilical vein endothelial cells). In words: VEGF Stimulated Ca++ Signal in vitro (FLIPR). The class given is cell-based. As to conditions: 10 μM, VEGF 5 ng/mL; for inhibition at 10 µM: Homo sapiens. Here is the method: VEGF Stimulated Ca^++ Signal in vitro
Automated FLIPR (Fluorometric Imaging Plate Reader) technology was used to screen for inhibitors of VEGF induced increases in intracellular calcium levels in fluorescent dye loaded endothelial cells. HUVEC (human umbilical vein endothelial cells) (Clonetics) were seeded in 96-well fibronectin coated black-walled plates overnight at 37° C./5%CO2. Cells were loaded with calcium indicator Fluo-4 for 45 minutes at 37° C. Cells were washed 4 times (Original Cell Wash, Labsystems) to remove extracellular dye. Test compounds were reconstituted in 100% DMSO and added to the cells to give a final DMSO concentration of 0.1%. For screening, cells were pre-incubated with test agents for 30 minutes, at a single concentration (10 μM) or at concentrations ranging from 0.01 to 10.0 μM followed by VEGF stimulation (5 ng/mL). Changes in fluorescence at 516 nm were measured simultaneously in all 96 wells using a cooled CCD camera. Data were generated by determining max-min fluorescence levels for unstimulated, stimulated, and drug treated samples. IC50 values for test compounds were calculated from % inhibition of VEGF stimulated responses in the absence of inhibitor.

For the compound `O=C1Nc2ccccc2C1=CNc1cccc(C(F)(F)F)c1` [Example 22, 3-[(3-Trifluoromethyl-phenylamino)-methylene]-1,3-dihydro-indol-2-one], the inhibition at 10 µM came to 22.5%.

On to `O=C1Nc2ccccc2C1=CNc1ccc2c(c1)CCC2` [Example 23, 3-(Indan-5-ylaminomethylene)-1,3-dihydro-indol-2-one], for which the inhibition at 10 µM was found to be 42%.

In the case of `O=C1Nc2ccccc2C1=CNc1ccc(Cl)cc1F` [Example 24, 3-[(4-Chloro-2-fluoro-phenylamino)-methylene]-1,3-dihydro-indol-2-one], the inhibition at 10 µM was -13.5%.

As to `O=C1Nc2ccccc2C1=CNc1ccc(C(F)(F)F)cc1` [Example 25, 3-[(4-Trifluoromethyl-phenylamino)-methylene]-1,3-dihydro-indol-2-one], the inhibition at 10 µM was -1.5%.

`CCOC(=O)Oc1cc(NC=C2C(=O)Nc3ccccc32)c(F)cc1C` [Example 26, Carbonic acid ethyl ester 4-fluoro-2-methyl-5-[(2-oxo-1,2-dihydro-indol-3-ylidenemethyl)-amino]-phenyl ester]: the inhibition at 10 µM is 37.5%.

Take `Cc1cc(F)c(NC=C2C(=O)Nc3ccccc32)cc1OC(=O)OCC(C)(C)C` [Example 27, Carbonic acid 2,2-dimethyl-propyl ester 4-fluoro-2-methyl-5-[(2-oxo-1,2-dihydro-indol-3-ylidenemethyl)-amino]-phenyl ester]: the inhibition at 10 µM is -9%.

As for `O=C1Nc2ccccc2C1=CNc1cc(O)c(Cl)cc1F` [Example 28, 3-[(4-Chloro-2-fluoro-5-hydroxy-phenylamino)-methylene]-1,3-dihydro-indol-2-one], the inhibition at 10 µM came out at 32.5%.

As for `N#CCc1ccc(NC=C2C(=O)Nc3ccccc32)cc1` [Example 30, 3-[(4-Cyanomethylphenylamino)-methylene]-1,3-dihydro-indol-2-one], the inhibition at 10 µM is 39.5%.

As to `O=C1Nc2ccccc2C1=CNc1ccc(Cl)cc1` [Example 36, 3-[(4-Chlorophenylamino)-methylene]-1,3-dihydro-indol-2-one], the inhibition at 10 µM was 30%.

`O=C1Nc2ccccc2C1=CNc1ccc(Cl)c(C(=O)O)c1` [Example 37, 2-Chloro-5-[(2-oxo-1,2-dihydro-indol-3-ylidenemethyl)-amino]-benzoic acid]: the inhibition at 10 µM was -4%.

Regarding `CC(=O)NS(=O)(=O)c1ccc(NC=C2C(=O)Nc3ccccc32)cc1` [Example 39, 2-Oxo-1,2-dihydro-indol-3-ylidenemethyl-sulfaacetamide], the “VEGF Stimulated Ca^++ signal assay % inhibition @ 10 μM” value is given as −14.50%.

With `O=C1Nc2ccccc2C1=CNc1ccc(Oc2ccccc2)cc1` [Example 41, 3-[(4-Phenoxyamino)-methylene]-1,3-dihydro-indol-2-one], the “VEGF Stimulated Ca^++ signal assay % inhibition @ 10 μM” value came out at 16.00%.

As to `COc1ccc(NC=C2C(=O)Nc3ccccc32)cc1OC` [Example 42, 3-[(3,4-Dimethoxyamino)-methylene]-1,3-dihydro-indol-2-one], the “VEGF Stimulated Ca^++ signal assay % inhibition @ 10 μM” value amounted to 59.50%.

As to `O=C1Nc2ccccc2C1=CNc1ccc(OC(F)(F)F)cc1` [Example 51, 3-[(4-Trifluoromethoxy-phenylamino)-methylene]-1,3-dihydro-indol-2-one], the inhibition at 10 µM stood at 45.5%.

On to `Cc1ccc(NC=C2C(=O)Nc3ccccc32)c(F)c1` [Example 53, 3-[(2-Fluoro-4-methyl-phenylamino)-methylene]-1,3-dihydro-indol-2-one], for which the inhibition at 10 µM was 2.5%.

On to `Cc1cc(NC=C2C(=O)Nc3ccccc32)ccc1Cl` [Example 54, 3-[(4-Chloro-3-methyl-phenylamino)-methylene]-1,3-dihydro-indol-2-one], for which the inhibition at 10 µM came out at 40.5%.

`COc1ccc(NC=C2C(=O)Nc3ccccc32)cc1C(F)(F)F` [Example 55, 3-[(4-Methoxy-3-trifluoromethyl-phenylamino)-methylene]-1,3-dihydro-indol-2-one]: the inhibition at 10 µM was 14.5%.

Regarding `COc1cc(NC=C2C(=O)Nc3cccc(C)c32)cc(OC)c1` [Example 61, 3-[(3,5-Dimethoxy-phenylamino)-methylene]-4-methyl-1,3-dihydro-indol-2-one], the inhibition at 10 µM is -4.5%.

For `Cc1ccc(NC=C2C(=O)Nc3cccc(C)c32)cc1` [Example 62, 4-Methyl-3-(p-tolylamino-methylene)-1,3-dihydro-indol-2-one], the inhibition at 10 µM was determined as 33%.

For the compound `Cc1cc(C)cc(NC=C2C(=O)Nc3cccc(C)c32)c1` [Example 63, 3-[(3,5-Dimethyl-phenylamino)-methylene]-4-methyl-1,3-dihydro-indol-2-one], the inhibition at 10 µM was -14.5%.

Regarding `O=C1Nc2ccc(Cl)cc2C1=CNc1ccc(OC(F)F)cc1` [Example 64, 3-[(4-Difluoromethoxyphenylamino)-methylene]-5-chloro-1,3-dihydro-indol-2-one], the inhibition at 10 µM was determined as 37%.

On to `O=C1Nc2ccc(Cl)cc2C1=CNc1ccc(OC(F)(F)F)cc1` [Example 66, 3-[(4-Trifluoromethoxyphenylamino)-methylene]-5-chloro-1,3-dihydro-indol-2-one], for which the inhibition at 10 µM was found to be 18.5%.

Consider `Cc1cc(NC=C2C(=O)Nc3ccc(Cl)cc32)ccc1O` [Example 67, 3-[(3-Methyl-4-hydroxyphenylamino)-methylene]-5-chloro-1,3-dihydro-indol-2-one], for which the inhibition at 10 µM is 19%.

With `O=C1Nc2ccc(Cl)cc2C1=CNc1ccc2c(c1)OCO2` [Example 68, 3-[(3,4-Metylenedioxyphenylamino)-methylene]-5-chloro-1,3-dihydro-indol-2-one], the “VEGF Stimulated Ca^++ signal assay % inhibition @ 10 μM” value is given as −2.50%.

For `Cc1ccc(NC=C2C(=O)Nc3ccc(Cl)cc32)cc1C` [Example 69, 3-[(3,4-Dimethylphenylamino)-methylene]-5-chloro-1,3-dihydro-indol-2-one], the inhibition at 10 µM is -10.7%.

In the case of `CC(C)c1ccc(NC=C2C(=O)Nc3ccc(Cl)cc32)cc1` [Example 70, 3-[(4-i-Propylphenylamino)-methylene]-5-chloro-1,3-dihydro-indol-2-one], the inhibition at 10 µM is 25%.

For the compound `Cc1ccc(NC=C2C(=O)Nc3ccc(Cl)cc32)cc1O` [Example 71, 3-[(3-Hydroxy-4-methylphenylamino)-methylene]-5-chloro-1,3-dihydro-indol-2-one], the inhibition at 10 µM amounted to 38.5%.

Regarding `O=C1Nc2ccc(Cl)cc2C1=CNc1ccccc1` [Example 74, 3-[(Phenylamino)-methylene]-5-chloro-1,3-dihydro-indol-2-one], the inhibition at 10 µM is 44%.

On to `COc1cc(NC=C2C(=O)Nc3ccc(Cl)cc32)cc(OC)c1` [Example 75, 3-[(3,5-Dimethoxyphenylamino)-methylene]-5-chloro-1,3-dihydro-indol-2-one], for which the inhibition at 10 µM is -18%.

Consider `O=C1Nc2ccc(Cl)cc2C1=CNc1cccc(O)c1` [Example 76, 3-[(3-Hydroxyphenylamino)-methylene]-5-chloro-1,3-dihydro-indol-2-one], for which the inhibition at 10 µM came out at 55.5%.

Regarding `O=C1Nc2ccc(Cl)cc2C1=CNc1ccc(O)cc1` [Example 77, 3-[(4-Hydroxyphenylamino)-methylene]-5-chloro-1,3-dihydro-indol-2-one], the inhibition at 10 µM was determined as 35%.

`Cc1cc(C)cc(NC=C2C(=O)Nc3ccc(Cl)cc32)c1` [Example 78, 3-[(3,5-Dimethylphenylamino)-methylene]-5-chloro-1,3-dihydro-indol-2-one]: the inhibition at 10 µM was 8%.

Consider `Cc1ccc(NC=C2C(=O)Nc3ccc(Cl)cc32)cc1` [Example 79, 3-[(4-Methylphenylamino)-methylene]-5-chloro-1,3-dihydro-indol-2-one], for which the inhibition at 10 µM is -4%.

Consider `O=C1Nc2ccccc2C1=CNc1ccc2c(c1)OCO2` [Example 80, 3-[(3,4-Methylenedioxyphenylamino)-methylene]-1,3-dihydro-indol-2-one], for which the inhibition at 10 µM was 3.5%.

On to `O=C1Nc2ccccc2C1=CNc1ccc(C(=O)O)cc1` [Example 86, 4-[(2-Oxo-1,2-dihydro-indol-3-ylidenemethyl)-amino]-benzoic acid], for which the inhibition at 10 µM is 48.5%.

For the compound `COC(=O)c1ccc(NC=C2C(=O)Nc3ccccc32)cc1OC` [Example 89, 2-Methoxy-4-[(2-oxo-1,2-dihydro-indol-3-ylidenemethyl)-amino]-benzoic acid methyl ester], the inhibition at 10 µM was found to be 39.5%.

As for `Cc1ccc(NC=C2C(=O)Nc3cccc(C)c32)cc1C` [Example 95, 3-[(3,4-Dimethyl-phenylamino)-methylene]-4-methyl-1,3-dihydro-indol-2-one], the inhibition at 10 µM turned out to be 14%.

For the compound `Cc1cccc2c1C(=CNc1ccc(C(C)(C)C)cc1)C(=O)N2` [Example 98, 3-[(4-tert-Butyl-phenylamino)-methylene]-4-methyl-1,3-dihydro-indol-2-one], the inhibition at 10 µM turned out to be 47.5%.

Consider `CC(C)(C)c1ccc(NC=C2C(=O)Nc3ccc(Cl)cc32)cc1` [Example 100, 5-Chloro-3-[(4-t-butyl-phenylamino)-methylene]-1,3-dihydro-indol-2-one], for which the inhibition at 10 µM amounted to 6%.

Turning to `COc1cc(NC=C2C(=O)Nc3ccc(Cl)cc32)c(OC)cc1Cl` [Example 104, 5-Chloro-3-[(4-chloro-2,5-dimethoxy-phenylamino)-methylene]-1,3-dihydro-indol-2-one], the inhibition at 10 µM was -14.5%.
